Data: US10653688B2, “6-(6-membered heteroaryl and aryl)isoquinolin-3-yl carboxamides and preparation and use thereof” (Samumed, LLC, priority 2017, dated 2020)
Where two headings read alike, the source gives them in different places.

Experiments:
[1] = tested on: Wnt activity (SW480 colon carcinoma cells stably expressing the Sp5-Luc reporter gene); assay: Wnt activity screening assay (Sp5-Luc reporter gene assay); type: cell-based, human; conditions: Homo sapiens; for EC50: 36 to 48 hours; for inhibition at 10 µM: read-out: percent inhibition at 10 μM (given for EC50 >10 μM), 10 μM
How it was run: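 EC50 values come from a variable-slope four-parameter fit of luminescence normalized to DMSO-only wells. The read-out follows 36–48 h incubation at 37 °C, 5% CO2, in DMEM containing 1% fetal bovine serum. Cells are hygromycin-selected SW480 stably expressing firefly luciferase under a Wnt-responsive Sp5 promoter (eight TCF/LEF sites).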

recombinant GSK3β kinase = recombinant GSK3β kinase (Homo sapiens (Human), UniProt P49841); assay: GSK3β kinase assay (Ser/Thr 09 peptide Z-lyte, FRET); type: biochemical;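 further: FRET read-out as coumarin over fluorescein emission ratio, compounds incubated one hour at room temperature, IC50 from dose-response curve fit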
[2] = tested on: SW480 colon carcinoma cells; assay: Cell viability assay (CellTiter-Glo); type: cell-based, human; conditions: Homo sapiens; for EC50: 96 h, four days, CellTiter-Glo; for inhibition at 10 µM: read-out: percent inhibition at 10 μM (given for EC50 >10 μM), 10 μM
[3] = tested on: LL29 cells (primary human fibroblasts derived from IPF patients), α-smooth muscle actin; assay: Inhibition of fibrotic process: TGF-β1-treated primary human fibroblasts, αSMA staining; type: cell-based; conditions: Homo sapiens, Fibroblast; for EC50: 96 h, TGF-β1 20 ng/mL, 4 days, % cells positive for αSMA; for inhibition at 10 µM: read-out: percent inhibition at 10 μM (given for EC50 >10 μM), TGF-β1, αSMA, 10 μM;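 on all read-outs here: controls were TGF-β1-stimulated wells with DMSO vehicle as the positive reference and cells given DMSO alone as the negative reference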
[4] = tested on: secreted cytokines TNFα, IL-6 and KC-GRO in BV-2 cells (mouse microglial cells); assay: Secreted cytokines in lipopolysaccharide-stimulated mouse glial cell line; type: cell-based; conditions: LPS 250 ng/mL 5 hours, table does not say which cytokine
Description: Representative compounds were screened using the cell-based assay procedure for secreted cytokines in a Lipopolysaccharide-stimulated mouse glial cell line described below.
BV-2 cells (mouse microglial cells) were cultured in 1:1 DMEM medium supplemented with 10% FBS, and 1% penicillin/streptomycin.
BV-2 cells are plated at 35,000 cells/well in a volume of 100 μl for at least 4 hours before compounds are added. DMSO-resuspended compounds were first dispensed in a 96-well plate and serial diluted from 10 μM to 4.6 nM final concentration in medium. Compounds were added to cells overnight. 250 ng/mL of lipopolysaccharide (Escherichia coli O111:B4, SIGMA) was added for 5 hours. Supernatant is removed and saved for further cytokine detection. The original plates with seeded cells were tested for cytotoxicity by measure of adenosine triphosphate (ATP) release by adding CellTiter-Glo® diluted 1:4 in distilled water (G7573, Promega) and transferring lysed cells to a completely black 96-well plate to be read with the Cytation3. Supernatant was then diluted 1:2 with a diluent from V-PLEX cytokine Kit and directly tested for the secreted cytokines TNFα, IL-6 and KC-GRO using electrochemiluminescence (Meso Scale Discovery). The standard curve for each cytokine was used to convert the electrochemiluminescent signal into pg of protein per mL. The signal was used to plot, draw the curve fitting, and determine each compounds EC50 in Prism (GraphPad).

[5] = tested on: IL-6 in human peripheral blood mononuclear cells (huPBMCs); assay: IL-6 inhibition in LPS-stimulated human peripheral blood mononuclear cells (HTRF); type: cell-based; conditions: Homo sapiens, PBMC; for EC50: LPS 50 ng/mL, 22 hours, IL-6 HTRF; for inhibition at 10 µM: read-out: percent inhibition at 10 μM (given for EC50 >10 μM), LPS, IL-6, 10 μM
How it was run: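 Compound-treated huPBMCs (1×10e6 cells/mL, 1% FBS-RPMI) were stimulated after 2 h with LPS (50 ng/mL) for another 22 h at 37° C. An anti-IL-6 HTRF pair reported IL-6 as the 665/620 nm ratio; activity relative to DMSO, EC50 by 4-parameter Levenberg-Marquardt fitting, duplicates.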

[6] = target: recombinant DYRK1A kinase (Homo sapiens (Human), UniProt Q13627); assay: DYRK1A kinase assay (Ser/Thr 18 peptide Z-lyte, FRET)
Description: Each compound was dissolved in DMSO as a 10 mM stock and used to prepare compound source plates.
This is a non-radioactive assay using fluorescence resonance energy transfer (FRET) between coumarin and fluorescein to detect kinase activity which is represented as a ratio of coumarin emission/fluorescein emission.
The mixture was allowed to incubate with the representative compounds for one hour at room temperature. All reactions were performed in duplicate. Unphosphorylated (“0% Control”) and phosphorylated (“100% control”) forms of Ser/Thr 18 served as control reactions. Additionally, an 11-point dose-response curve of Staurosporine (luM top) was run to serve as a positive compound control.
After incubation, Development Reagent A was diluted in Development Buffer then added to the reaction and allowed to further incubate for one hour at room temperature.
Dose-response curves were generated and inhibitory concentration (IC50) values were calculated using non-linear regression curve fit in the Dotmatics' Studies Software (Bishops Stortford, UK).

[7] = tested on: pT212Tau in Dyrk1a- and MAPT-overexpressing HEK293T cells; assay: Tau phosphorylation at Threonine 212 (pT212Tau) sandwich ELISA in double transfected cells; conditions: Homo sapiens, HEK-293T, read-out: Thr212 EC50 (μM)
[8] = tested on: Tau phosphorylation at Ser396 (pSer396) in SH-SY5Y cells; assay: Tau phosphorylation at Ser396 (pSer396) cell assay, ELISA/western blot; type: cell-based, human; conditions: read-out: EC50 in the Tau assay
Description: SH-SY5Y cells (human neuroblastoma) were cultured in DMEM/F-12 medium supplemented with 15% FBS, Non-essential Amino Acid and Penicillin/Streptomycin. Two days before treatment, cells were seeded onto 96 well plates at 5×10^4 cells/well.
The above synthesized compounds were screened using the cell assay procedure to assess decrease Tau phosphorylation at Ser396 (pSer396) described below.
DMSO-resuspended compounds were dispensed to 8 wells as a serial titration from 10 μM to 4.6 nM final in medium and cells were exposed overnight (16-18 h) in a humidified incubator at 36.6c before harvest.
Cells were lysed with RIPA buffer complemented with phosphatase and protease inhibitors then lysates were spun down at 12,000 g for 10 min to remove any cellular debris. Lysates are then either directly tested for pSer396 by ELISA (Life Technology, Kit KHB7031) or loaded on NuPage Bis-Tris gels for western blot analysis. Colorimetric detection of ELISA signal is performed by Cytation3 plate reader (Biotek) and the chemiluminescence signal for HRP-linked antibodies used in western blotting is detected using a Carestream Image Station. The same pSer396 antibody is used for detection of pTau in both assays.
Blot densitometry for pSer396 and β-actin were analyzed using ImageJ (NIH) and pSer396 Tau ELISA signal was used to plot, draw the curve fitting, and determine each compounds EC50 in Prism (GraphPad).

[9] = GSK3β kinase, head says EC50, method says IC50, ATP 46 μM
[10] = DYRK1A kinase, head says EC50, method says IC50, ATP 30 μM

Chain of recombinant GSK3β kinase (P49841 whole entry): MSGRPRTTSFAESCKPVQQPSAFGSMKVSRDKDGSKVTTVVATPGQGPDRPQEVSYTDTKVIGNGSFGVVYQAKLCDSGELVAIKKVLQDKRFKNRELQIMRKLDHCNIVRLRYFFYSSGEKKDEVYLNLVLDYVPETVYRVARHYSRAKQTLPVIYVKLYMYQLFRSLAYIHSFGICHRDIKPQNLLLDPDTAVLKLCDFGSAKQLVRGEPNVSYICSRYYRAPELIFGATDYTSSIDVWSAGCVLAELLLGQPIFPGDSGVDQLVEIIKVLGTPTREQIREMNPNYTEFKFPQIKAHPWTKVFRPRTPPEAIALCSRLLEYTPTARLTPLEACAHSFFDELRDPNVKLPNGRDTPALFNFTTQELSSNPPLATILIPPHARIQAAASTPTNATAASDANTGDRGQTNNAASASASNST

| EC50 [1] [µM] | EC50 (recombinant GSK3β kinase) [µM] | EC50 [2] [µM] | EC50 [4] [µM] | EC50 [5] [µM] | EC50 [6] [µM] | EC50 (recombinant GSK3β kinase; [9]) [µM] | EC50 [6, 10] [µM] | Compound | inhibition at 10 µM [1] [%] | inhibition at 10 µM [2] [%] | EC50 [3] [µM] | inhibition at 10 µM [5] [%] | EC50 [7] [µM] | inhibition at 10 µM [3] [%] | EC50 ([8]; Homo sapiens, SH-SY5Y) [µM] | EC50 ([8]; control DYRK1A inhibitors, printed '>10 M' (μ apparently lost)) [µM] |
| --- | --- | --- | --- | --- | --- | --- | --- | --- | --- | --- | --- | --- | --- | --- | --- | --- |
| 1.55 | – | 1.86 | 0.479 | 1.32 | – | > 10 | 0.029 | O=C(Nc1cc2cc(-c3cncc(C(F)F)c3)ccc2cn1)c1cccc(C2CCNCC2)c1 [Compound 26, N-(6-(5-(Difluoromethyl)pyridin-3-yl)isoquinolin-3-yl)-3-(piperidin-4-yl)benzamide] | – | – | 1.33 | – | 1.4 | – | – | – |
| 1.11 | – | 1.95 | 0.847 | 9.16 | – | > 10 | 0.029 | CN1CCC(c2cccc(C(=O)Nc3cc4cc(-c5cncc(C(F)F)c5)ccc4cn3)c2)CC1 [Compound 27, N-(6-(5-(Difluoromethyl)pyridin-3-yl)isoquinolin-3-yl)-3-(1-methylpiperidin-4-yl)benzamide] | – | – | 0.979 | – | 6.8 | – | – | – |
| 4.67 | – | 4.15 | 0.295 | 7.43 | – | > 10 | 0.011 | CN1CCN(c2cc(C(=O)Nc3cc4cc(-c5cncc(C(F)F)c5)ccc4cn3)ccn2)CC1 [Compound 28, N-(6-(5-(Difluoromethyl)pyridin-3-yl)isoquinolin-3-yl)-2-(4-methylpiperazin-1-yl)isonicotinamide] | – | – | 1.52 | – | 1.6 | – | – | – |
| 0.266 | – | 0.441 | – | 1.78 | – | > 10 | 0.012 | Nc1cncc(-c2ccc3cnc(NC(=O)c4coc(C5CCNCC5)n4)cc3c2)c1 [Compound 148, N-(6-(5-Aminopyridin-3-yl)isoquinolin-3-yl)-2-(piperidin-4-yl)oxazole-4-carboxamide] | – | – | 1.19 | – | – | – | – | – |
| 7.84 | – | > 10 | – | 3.79 | – | > 10 | 0.102 | CC(C)N1CCC(c2nc(C(=O)Nc3cc4cc(-c5cccnc5)ccc4cn3)co2)CC1 [Compound 149, 2-(1-Isopropylpiperidin-4-yl)-N-(6-(pyridin-3-yl)isoquinolin-3-yl)oxazole-4-carboxamide] | – | 39 | 3.4 | – | – | – | – | – |
| > 10 | > 10 | > 10 | – | > 10 | 1.63 | – | – | CC(C)N1CCC(c2nc(C(=O)Nc3cc4cc(-c5cncc(F)c5)ccc4cn3)co2)CC1 [Compound 150, N-(6-(5-Fluoropyridin-3-yl)isoquinolin-3-yl)-2-(1-isopropylpiperidin-4-yl) oxazole-4-carboxamide] | 15.2 | 10.9 | > 10 | 10.7 | – | 42 | – | – |

The remaining lines, values behind:

| Compound | EC50 [1] [µM] | EC50 (recombinant GSK3β kinase) [µM] | EC50 [2] [µM] | EC50 [4] [µM] | EC50 [5] [µM] | EC50 [6] [µM] | EC50 (recombinant GSK3β kinase; [9]) [µM] | EC50 [6, 10] [µM] | inhibition at 10 µM [1] [%] | inhibition at 10 µM [2] [%] | EC50 [3] [µM] | inhibition at 10 µM [5] [%] | EC50 [7] [µM] | inhibition at 10 µM [3] [%] | EC50 ([8]; Homo sapiens, SH-SY5Y) [µM] | EC50 ([8]; control DYRK1A inhibitors, printed '>10 M' (μ apparently lost)) [µM] |
| --- | --- | --- | --- | --- | --- | --- | --- | --- | --- | --- | --- | --- | --- | --- | --- | --- |
| O=C(CN1CCOCC1)Nc1cc2cc(-c3cncc(F)c3)ccc2cn1 [Compound 22, N-(6-(5-Fluoropyridin-3-yl)isoquinolin-3-yl)-2-morpholinoacetamide] | > 10 | 1.77 | > 10 | 1.32 | > 10 | 0.07 | – | – | 10.9 | 17.2 | 2.06 | 22.9 | 0.253 | – | – | – |
| O=C(CN1CCOCC1)Nc1cc2cc(-c3cccnn3)ccc2cn1 [Compound 66, 2-morpholino-N-(6-(pyridazin-3-yl)isoquinolin-3-yl)acetamide] | > 10 | 0.859 | > 10 | 2.97 | > 10 | 0.123 | – | – | 8.2 | 17.5 | > 10 | 8.1 | 0.791 | 10.6 | – | – |
| O=C(CN1CCCC1)Nc1cc2cc(-c3cnccn3)ccc2cn1 [Compound 74, N-(6-(Pyrazin-2-yl)isoquinolin-3-yl)-2-(pyrrolidin-1-yl)acetamide] | > 10 | – | > 10 | 1.43 | > 10 | – | 1.69 | 0.094 | 17.5 | 125 | > 10 | 4.9 | 2.1 | 18.7 | – | – |
| O=C(CN1CCOCC1)Nc1cc2cc(-c3cnccn3)ccc2cn1 [Compound 79, 2-Morpholino-N-(6-(pyrazin-2-yl)isoquinolin-3-yl)acetamide] | > 10 | – | > 10 | 1.7 | > 10 | – | 1.31 | 0.079 | 7.9 | 24.8 | > 10 | 3.9 | 0.959 | 17.2 | – | – |
| CN1CCCC(C(=O)Nc2cc3cc(-c4cnccn4)ccc3cn2)CC1 (stereo not drawn) [Compound 80, 1-Methyl-N-(6-(pyrazin-2-yl)isoquinolin-3-yl)azepane-4-carboxamide] | > 10 | – | > 10 | – | > 10 | – | 1.56 | 0.027 | 9.6 | 32 | 9.13 | 4.9 | 1.4 | – | – | – |
| CC(C)(O)CN1CCCC(C(=O)Nc2cc3cc(-c4cnccn4)ccc3cn2)CC1 (stereo not drawn) [Compound 82, 1-(2-Hydroxy-2-methylpropyl)-N-(6-(pyrazin-2-yl)isoquinolin-3-yl)azepane-4-carboxamide] | > 10 | 1.54 | > 10 | 0.717 | > 10 | 0.027 | – | – | 3.4 | 20 | 3.15 | 9.9 | 0.192 | – | – | – |
| COc1ccc2c(c1)[nH]c1c(C)nccc12 [Harmine, reference compound] | – | – | – | – | – | – | – | – | – | – | – | – | – | – | > 10 | – |
| CCN1/C(=C/C(C)=O)Sc2ccc(O)cc21 [Indy, reference compound] | – | – | – | – | – | – | – | – | – | – | – | – | – | – | – | > 10 |
